According to patent US20240043435A1, “TYK-2 INHIBITOR” (BEIGENE, LTD., priority 2020, published 2024):
pIC50: −log10 of the molar value.

Experiments:
[1] = tested on: JAK2, TYK2/p-STAT4 (Tyr693) activated by IL-12 in NK-92 cell line; experiment: IL-12-JAK2, TYK2/p-STAT4 (Tyr693) inhibition IC50 cellular assay; format: cell-based; settings: for pIC50: NK92, Cellular assay, read-out: pSTAT4/IL-12 IC50; for Selectivity fold (TYK2/JAK2): Cellular assay, pSTAT5/GM-CSF IC50 vs pSTAT4/IL-12 IC50
Method in brief: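 p-STAT4 (Tyr693) in lysates was measured by AlphaLISA SureFire Ultra after a 30 min IL-12 challenge (40 ng/ml final) at 37° C. Overnight-starved, IL-2-free NK-92 cells had been pretreated 1 h with compound at 10000 to 0.61 nM (4-fold, 8 points). IC50 values came from four-parameter logistic fitting.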

[2] = target: T1, TYK2-JH2 (aa 575-869, in-house) protein (Homo sapiens, UniProt P29597); experiment: TYK2-JH2 biochemical assay (HTRF probe displacement); format: binding; settings: Biochemical assay; read-out: TYK2-JH2 IC50
T1 construct: TYK2-JH2 (aa 575-869, in-house) protein; made in house
T1 sequence (P29597 575-869): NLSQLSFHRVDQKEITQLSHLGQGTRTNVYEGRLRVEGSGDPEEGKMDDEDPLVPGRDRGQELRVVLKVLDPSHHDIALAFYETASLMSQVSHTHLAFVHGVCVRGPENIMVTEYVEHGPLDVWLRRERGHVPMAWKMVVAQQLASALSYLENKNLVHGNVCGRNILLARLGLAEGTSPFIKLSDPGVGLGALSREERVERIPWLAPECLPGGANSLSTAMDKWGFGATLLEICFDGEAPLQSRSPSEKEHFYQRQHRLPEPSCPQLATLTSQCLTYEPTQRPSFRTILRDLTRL
Method in brief: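 HTRF probe-displacement format: compound dilutions (10 points, 5-fold, from 500 uM in DMSO at 500×) were combined with 0.2 nM TYK2-JH2 protein for 0.5 h at room temperature in HEPES pH 7.5 buffer with MgCl2, BSA, DTT and Brij-35. Percent inhibition came from the 615/665 nm fluorescence ratio, fitted to a four-parameter logistic for IC50.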

pSTAT5/GM-CSF = pSTAT5/GM-CSF cellular assay (JAK2 selectivity); format: cell-based; settings: for Selectivity fold (TYK2/JAK2): pSTAT5/GM-CSF IC50 over pSTAT4/IL-12 IC50

## CCOc1cc(Nc2cc(NC(C)=O)ncc2-c2cc(C)n(C)n2)nc(S(C)(=O)=O)c1 [Example N7, N-(5-(1,5-dimethyl-1H-pyrazol-3-yl)-4-((4-ethoxy-6-(methylsulfonyl)pyridin-2-yl)amino)pyridin-2-yl)acetamide]
[1]
  pIC50: 8.84
[2]
  pIC50: 10.62
pSTAT5/GM-CSF
  pIC50: < 5.00
  Selectivity fold (TYK2/JAK2): >6993 fold

## CC(=O)Nc1cc(Nc2cc(OCC3CC3)cc(S(C)(=O)=O)c2)c(-c2ccc(N3C[C@@H](C)O[C@@H](C)C3)cn2)cn1 [Example C6, N-(4′-((3-(cyclopropylmethoxy)-5-(methylsulfonyl)phenyl)amino)-5-((cis)-2,6-dimethylmorpholino)-[2,3′-bipyridin]-6′-yl)acetamide]
[1]
  Selectivity fold (TYK2/JAK2): >381 fold
  pIC50: 7.58
[2]
  pIC50: 10.27
pSTAT5/GM-CSF
  pIC50: < 5.00

## CC(=O)Nc1cc(Nc2cc(-c3ccccc3)cc(S(C)(=O)=O)n2)c(-c2ccn(C)n2)cn1 [Example J38, N-(5-(1-methyl-1H-pyrazol-3-yl)-4-((6-(methylsulfonyl)-4-phenylpyridin-2-yl)amino)pyridin-2-yl)acetamide]
[1]
  pIC50: 8.70
[2]
  pIC50: 10.62
pSTAT5/GM-CSF
  pIC50: < 5.00
  Selectivity fold (TYK2/JAK2): >5050 fold

## CC(=O)Nc1cc(Nc2cc(OC(C)C)cc(S(C)(=O)=O)n2)c(-c2ccc(N3C[C@@H](C)O[C@@H](C)C3)cn2)cn1 [Example C4, N-(5-((cis)-2,6-dimethylmorpholino)-4′-((4-isopropoxy-6-(methylsulfonyl)pyridin-2-yl)amino)-[2,3′-bipyridin]-6′-yl)acetamide]
[1]
  Selectivity fold (TYK2/JAK2): >2298 fold
  pIC50: 8.36
[2]
  pIC50: 10.47
pSTAT5/GM-CSF
  pIC50: < 5.00

## COCc1ccc(-c2cnc(NC(C)=O)cc2Nc2cc(C)cc(S(C)(=O)=O)n2)nc1 [Example E2, N-(5-(methoxymethyl)-4′-((4-methyl-6-(methylsulfonyl)pyridin-2-yl)amino)-[2,3′-bipyridin]-6′-yl)acetamide]
[1]
  Selectivity fold (TYK2/JAK2): 17867 fold
  pIC50: 9.49
[2]
  pIC50: 10.77
pSTAT5/GM-CSF
  pIC50: 5.24

## CC(=O)Nc1cc(Nc2cc(OCCO)cc(S(C)(=O)=O)n2)c(-c2ccn(C)n2)cn1 [Example J15, N-(4-((4-(2-hydroxyethoxy)-6-(methylsulfonyl)pyridin-2-yl)amino)-5-(1-methyl-1H-pyrazol-3-yl)pyridin-2-yl)acetamide]
[1]
  pIC50: 8.23
[2]
  pIC50: 10.80
pSTAT5/GM-CSF
  pIC50: < 5.00
  Selectivity fold (TYK2/JAK2): >1694 fold

## [2H]C([2H])([2H])Oc1cc(Nc2cc(NC(C)=O)ncc2-c2ccc(F)cn2)nc(S(C)(=O)=O)c1 [Example F24, N-(5-fluoro-4′-((4-(methoxy-d3)-6-(methylsulfonyl)pyridine-2-yl)amino)-[2,3′-bipyridin]-6′-yl)acetamide]
[1]
  Selectivity fold (TYK2/JAK2): >12195 fold
  pIC50: 9.09
[2]
  pIC50: 10.48
pSTAT5/GM-CSF
  pIC50: < 5.00

## CC(=O)Nc1cc(Nc2nc(S(C)(=O)=O)cn(C)c2=O)c(-c2ccc3c(n2)OCC(C)(C)O3)cn1 [Example Q64, N-(5-(2,2-dimethyl-2,3-dihydro-[1,4]dioxino[2,3-b]pyridin-6-yl)-4-((4-methyl-6-(methylsulfonyl)-3-oxo-3,4-dihydropyrazin-2-yl)amino)pyridin-2-yl)acetamide]
[1]
  pIC50: 8.34
[2]
  pIC50: 10.47
pSTAT5/GM-CSF
  pIC50: < 5.00
  Selectivity fold (TYK2/JAK2): >2169 fold

## CC(=O)Nc1cc(Nc2nc(S(C)(=O)=O)ccc2OC(F)F)c(-c2ccn(C)n2)cn1 [Example J63, N-(4-((3-(difluoromethoxy)-6-(methylsulfonyl)pyridin-2-yl)amino)-5-(1-methyl-1H-pyrazol-3-yl)pyridin-2-yl)acetamide]
[1]
  pIC50: 9.34
[2]
  pIC50: 10.74
pSTAT5/GM-CSF
  pIC50: < 5.00
  Selectivity fold (TYK2/JAK2): >21645 fold

## CO[C@H]1C[C@H](c2cc(Nc3cc(NC(C)=O)ncc3-c3ccc4c(n3)OCC(C)(C)O4)nc(S(C)(=O)=O)c2)C1 [Example Q54]
[1]
  pIC50: 9.25
[2]
  pIC50: 10.43
pSTAT5/GM-CSF
  pIC50: 5.40
  Selectivity fold (TYK2/JAK2): 7116 fold

## CC(=O)Nc1cc(Nc2cc(O[C@H]3C[C@H](O)C3)cc(S(C)(=O)=O)c2)c(-c2ccn(C)n2)cn1 [Example J37, N-(4-((3-((trans)-3-hydroxycyclobutoxy)-5-(methylsulfonyl)phenyl)amino)-5-(1-methyl-1H-pyrazol-3-yl)pyridin-2-yl)acetamide]
[1]
  pIC50: 7.72
[2]
  pIC50: 10.46
pSTAT5/GM-CSF
  pIC50: < 5.00
  Selectivity fold (TYK2/JAK2): >523 fold

## CC(=O)Nc1cc(Nc2cc(OC(C)C)cc(S(C)(=O)=O)n2)c(-c2ccc(C(C)(C)O)cn2)cn1 [Example H2, N-(5-(2-hydroxypropan-2-yl)-4′-((4-isopropoxy-6-(methylsulfonyl)pyridin-2-yl)amino)-[2,3′-bipyridin]-6′-yl)acetamide]
[1]
  Selectivity fold (TYK2/JAK2): >10649 fold
  pIC50: 9.03
[2]
  pIC50: 10.44
pSTAT5/GM-CSF
  pIC50: < 5.00

## CC(=O)Nc1cc(Nc2cc(C(F)F)cc(S(C)(=O)=O)c2)c(-c2ccc(C(C)(C)O)cn2)cn1 [Example H25, N-(4′-((3-(difluoromethyl)-5-(methylsulfonyl)phenyl)amino)-5-(2-hydroxypropan-2-yl)-[2,3′-bipyridin]-6′-yl)acetamide]
[1]
  Selectivity fold (TYK2/JAK2): >1328 fold
  pIC50: 8.12
[2]
  pIC50: 10.42
pSTAT5/GM-CSF
  pIC50: < 5.00

## CC(=O)Nc1cc(Nc2cc(OC3CCC3)cc(S(C)(=O)=O)n2)c(-c2ccn(C)n2)cn1 [Example J44, N-(4-((4-cyclobutoxy-6-(methylsulfonyl)pyridin-2-yl)amino)-5-(1-methyl-1H-pyrazol-3-yl)pyridin-2-yl)acetamide]
[1]
  pIC50: 9.45
[2]
  pIC50: 10.66
pSTAT5/GM-CSF
  pIC50: < 5.00
  Selectivity fold (TYK2/JAK2): >27932 fold

## CC(=O)Nc1cc(Nc2cccc(S(N)(=O)=O)n2)c(-c2ccccn2)cn1 [Example B4, N-(4′-((6-sulfamoylpyridin-2-yl)amino)-[2,3′-bipyridin]-6′-yl)acetamide]
[1]
  Selectivity fold (TYK2/JAK2): >3952 fold
  pIC50: 8.60
[2]
  pIC50: 10.72
pSTAT5/GM-CSF
  pIC50: < 5.00

## CC(=O)Nc1cc(Nc2cc(OC(C)C)cc(S(C)(=O)=O)n2)c(-c2ccn(CCO)n2)cn1 [Example A14, N-(5-(1-(2-hydroxyethyl)-1H-pyrazol-3-yl)-4-((4-isopropoxy-6-(methylsulfonyl)pyridin-2-yl)amino)pyridin-2-yl)acetamide]
[1]
  Selectivity fold (TYK2/JAK2): >10319 fold
  pIC50: 9.01
[2]
  pIC50: 10.66
pSTAT5/GM-CSF
  pIC50: < 5.00

## CC(=O)Nc1cc(Nc2cc(OCCO)cc(S(C)(=O)=O)n2)c(-c2ccc(C(F)(F)F)cn2)cn1 [Example F12, N-(4′-((4-(2-hydroxyethoxy)-6-(methylsulfonyl)pyridin-2-yl)amino)-5-(trifluoromethyl)-[2,3′-bipyridin]-6′-yl)acetamide]
[1]
  Selectivity fold (TYK2/JAK2): >7407 fold
  pIC50: 8.87
[2]
  pIC50: 10.47
pSTAT5/GM-CSF
  pIC50: < 5.00

## CC(=O)Nc1cc(Nc2cc(Cl)cc(S(C)(=O)=O)c2)c(-c2ccn(C)n2)cn1 [Example J31, N-(4-((3-chloro-5-(methylsulfonyl)phenyl)amino)-5-(1-methyl-1H-pyrazol-3-yl)pyridin-2-yl)acetamide]
[1]
  pIC50: 7.82
[2]
  pIC50: 10.12
pSTAT5/GM-CSF
  pIC50: < 5.00
  Selectivity fold (TYK2/JAK2): >668 fold
